The text below walks through data of patent US20110213026A1, “EXTRACTS WITH LIVER-X-RECEPTOR MODULATORS, COMPOUNDS AND THEIR USE ESPECIALLY IN WEIGHT CONTROL” (INTERMED DISCOVERY GMBH, priority 2007, published 2011).

For test [1], the target named is NPFF2 receptor (Homo sapiens, UniProt Q9Y5X5). The note with it: literature report; cited from earlier work.
Test [2] has as its target T1, LXR ligand binding domain (GST-LXR LBD) (Homo sapiens, UniProt Q13133).
T1 sequence (Q13133 209-447): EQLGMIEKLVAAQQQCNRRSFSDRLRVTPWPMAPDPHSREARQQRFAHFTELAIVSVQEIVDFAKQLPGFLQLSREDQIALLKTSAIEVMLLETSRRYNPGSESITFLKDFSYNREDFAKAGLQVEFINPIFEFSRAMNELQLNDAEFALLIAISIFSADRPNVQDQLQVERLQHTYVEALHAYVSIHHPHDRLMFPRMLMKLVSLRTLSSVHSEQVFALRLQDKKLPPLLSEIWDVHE
The test is described as follows: In vitro LXR assay (HTR-FRET, coactivator b-SRC1 recruitment). The note with it: FRET 12-point dose response. The test is classed as biochemical. The text has this: The LXR assay is configured using time-resolved fluorescence resonance energy transfer technology (HTR-FRET) (see Albers M, Blume B, Schlueter T, Wright MB, Kober I, Kremoser C, Deuschle U, Koegl M; “A novel principle for partial agonism of liver X receptor ligands. Competitive recruitment of activators and repressors”. J. Biol. Chem. 2006 24;281(8) 4920-30; and Chin J, Adams A D, Bouffard A, Green A, Lacson R G, Smith T, Fischer P A, Menke J G, Sparrow C P, Mitnaul L J; “Miniaturization of cell-based beta-lactamase-dependent FRET assays to ultra-high throughput formats to identify agonists of human liver X receptors”. Assay Drug Dev. Technol. 2003 1(6):777-87).
In the presence of an agonist, a fusion protein of glutathione S-transferase (GST) and LXR ligand binding domain (GST-LXR LBD) associates with a biotin-labeled nuclear receptor coactivator (b-SRC1). A fluorescent signal is detected in the presence of Eu-labeled anti GST antibodies and streptavidin-labeled allophycocyanin (APC). FRET is made possible by agonist-dependent close interaction of the test proteins.
Compounds which act as agonists at the LXR ligand binding domain are detected by an increase in time-resolved fluorescence. This LXR-FRET is performed as described by Albers et al. (loc. cit.).
FRET-active compounds are assayed in a FRET 12-point dose response experiment to determine the EC50—values of the compounds mentioned in the following table 9: […]

A short description of test [3]: In vivo assay in rats: 8 week feeding study, body weight and body fat. Also noted: species or system Sprague-Dawley (SD) rats. As to conditions: high fat diet, 0.1% in chow, 8 weeks, versus control groups. As to the method:
The “further enriched extract” of Example 2 (also called IMD-XT0003 above and below), containing the LXRα active compounds is prepared and tested using six week old, none-adult, male Sprague-Dawley (SD) rats (Charles Rivers, Sulzfeld, Germany). The extract is mixed with the chow (ssniff Spezialdiäten GmbH, Soest, Germany) to a final concentration of 0.1% by weight and fed for 8 weeks in two different treatment regimes: • Balanced diet (standardised to 4% fat) • High fat diet (standardised 34% fat) Controls obtain the same diet without IMD-XT0003 or other anti-obesity additives. Body weight is studied and analysed every week, body fat and mineral bone density are analysed by DEXA (scanner, see Example 3) in week 0, in week 4 and at the last day of the study in week 8. Furthermore, the white body fat weight is determined after removal of the tissue at the end of the feeding study in week 8. For the DEXA measurements the same apparatuses and methodology are used as described in example 3. As a control experiment within the high fat diet, epigallocatechin-3-gallate (EGCG, Chengdu Purification Technology Development Co. Ltd, Chengdu, China) in pure form is used as the standard for comparison of potency and differentiation as well as benchmark against competing compounds or formulations against obesity. […]

NPFF2 receptor, sequence (Q9Y5X5 whole entry, the tested form may be a part): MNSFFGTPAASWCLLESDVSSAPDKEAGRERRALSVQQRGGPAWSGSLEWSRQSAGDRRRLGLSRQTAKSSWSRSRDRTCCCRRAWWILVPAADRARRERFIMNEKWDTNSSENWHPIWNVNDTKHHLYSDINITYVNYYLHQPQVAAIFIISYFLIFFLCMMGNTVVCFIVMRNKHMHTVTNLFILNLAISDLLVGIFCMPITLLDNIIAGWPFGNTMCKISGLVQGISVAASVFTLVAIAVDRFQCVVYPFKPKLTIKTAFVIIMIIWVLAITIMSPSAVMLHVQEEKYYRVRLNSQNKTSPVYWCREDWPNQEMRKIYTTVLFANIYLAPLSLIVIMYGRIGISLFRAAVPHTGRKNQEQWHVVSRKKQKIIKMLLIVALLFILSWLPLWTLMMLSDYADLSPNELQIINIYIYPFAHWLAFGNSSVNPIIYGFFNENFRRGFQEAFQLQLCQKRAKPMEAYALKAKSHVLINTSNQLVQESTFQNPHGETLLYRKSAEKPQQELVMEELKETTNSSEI

Regarding `COc1cc2c(c(OC)c1OC)-c1c(cc3c(c1OC)OCO3)[C@H](OC(=O)c1ccccc1)[C@@](C)(O)[C@@H](C)C2` [Gomisin G], the NPFF2 receptor agonism entry in test [1] is “potent NPFF2 receptor agonists”. `COc1cc2c(c(OC)c1OC)-c1c(cc(OC)c(OC)c1OC)[C@H](OC(=O)c1ccccc1)[C@@](C)(O)[C@@H](C)C2` [benzoylgomisin Q]: the NPFF2 receptor agonism entry in test [1] is given as “potent NPFF2 receptor agonists”.

By EC50 is commonly meant the concentration that produces a half-maximal response. Consider `COc1c2c(cc3c1-c1c(cc4c(c1OC)OCO4)CC(C)C(C)C3)OCO2` (stereo not shown) [Schizandrin C, 3,3′-Dimethoxy-4,5:4′,5′-bis(methylenedioxy)-2,2′-cyclolignan], for which, in test [2], it took 5.6 µM to reach a half-maximal effect (EC50).

As for epigallocatechin-3-gallate [EGCG], in test [3], the body fat accumulation result is reported as “No effects” and the body weight accumulation result is “No effects”.

In turn, `COc1cc2c(c(OC)c1OC)-c1c(cc3c(c1OC)OCO3)CC(C)C(C)C2` (stereo not shown) [Gomisin N, 3,3,4,5-Tetramethoxy-4′,5′-methylenedioxy-2,2′-cyclolignan] showed an EC50 in test [2] of 10.6 µM.

Take `COc1cc2c(c(OC)c1OC)-c1c(cc(OC)c(OC)c1OC)CC(C)C(C)C2` (stereo not shown) [Desoxyschizandrol A, 3,3′,4,4′,5,5′-Hexamethoxy-2,2′-cyclolignan]: the EC50 in test [2] is more than 10 µM.
